Structures can show the parent of a compound that is named as a salt. Where two headings read alike, the source gives them in different places.
What was measured:
[1] = target: T1, human factor Xa (Homo sapiens, UniProt P00742); assay: Inhibition of Factor Xa hydrolysis of chromogenic substrate S2222 (Ki); assay type: biochemical; details: purified human factor Xa, 0.10 M sodium phosphate buffer, pH 7.5, read-out: Ki values for inhibition of Serine Proteases: Factor Xa
T1 construct: 0.2-0.5 nM human thrombin or human factor Xa; purchased Enzyme Research Laboratories, South Bend, Ind
Method in brief: (§1)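 Purified human proteases hydrolysed chromogenic substrates (thrombin S2238, Xa S2222, VIIa S2288), followed at 405 nm. Thrombin/Xa buffer: 0.10 M sodium phosphate pH 7.5, 0.20 M NaCl, 0.5% PEG 8000; VIIa: 0.05 M Tris pH 7.6, 0.10 M NaCl, 4 mM CaCl2, 0.1% BSA. Ki from velocities at 25–30 min.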

[2] = test system: Thrombin time; assay: Thrombin time (IC50), Table 80
[3] = target: T2, human factor VIIa (Homo sapiens, UniProt P08709); assay: Inhibition of Factor VIIa hydrolysis of chromogenic substrate S2288 (Ki); assay type: biochemical; details: purified human factor VIIa, 0.05 M tris buffer, pH 7.6, read-out: Ki values for inhibition of Serine Proteases: Factor VIIa
T2 construct: 50 nM human factor VIIa (BiosPacific, Emeryville, Calif.); purchased BiosPacific, Emeryville, Calif
T2 sequence (P08709 213-466 limits assumed): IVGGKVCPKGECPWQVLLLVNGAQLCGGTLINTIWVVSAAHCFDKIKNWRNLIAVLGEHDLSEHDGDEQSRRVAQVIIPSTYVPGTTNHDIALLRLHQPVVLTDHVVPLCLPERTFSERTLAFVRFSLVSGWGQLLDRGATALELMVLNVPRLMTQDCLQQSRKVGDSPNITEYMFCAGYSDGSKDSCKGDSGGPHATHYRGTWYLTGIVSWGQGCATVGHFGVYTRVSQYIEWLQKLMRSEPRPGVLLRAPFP
T2 sequence (P08709 61-212 partner limits assumed): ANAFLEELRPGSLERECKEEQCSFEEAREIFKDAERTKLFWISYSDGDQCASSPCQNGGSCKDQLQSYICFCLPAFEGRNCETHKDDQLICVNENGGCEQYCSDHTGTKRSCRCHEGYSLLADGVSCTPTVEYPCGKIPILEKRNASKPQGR
Method in brief: as §1

[4] = target: T3, human thrombin (Homo sapiens, UniProt P00734); assay: Inhibition of thrombin hydrolysis of chromogenic substrate S2238 (Ki); assay type: biochemical; design: 0.2-0.5 nM human thrombin or human factor Xa; purchased Enzyme Research Laboratories, South Bend, Ind; details: purified human thrombin, 0.10 M sodium phosphate buffer, pH 7.5, read-out: Ki values for inhibition of Serine Proteases: Trombin
Method in brief: as §1

[5] = target: T3, human thrombin; details: literature value; cited from earlier work
[6] = target: thrombin; details: literature value; cited from earlier work

T1 sequence (P00742 235-488 limits assumed): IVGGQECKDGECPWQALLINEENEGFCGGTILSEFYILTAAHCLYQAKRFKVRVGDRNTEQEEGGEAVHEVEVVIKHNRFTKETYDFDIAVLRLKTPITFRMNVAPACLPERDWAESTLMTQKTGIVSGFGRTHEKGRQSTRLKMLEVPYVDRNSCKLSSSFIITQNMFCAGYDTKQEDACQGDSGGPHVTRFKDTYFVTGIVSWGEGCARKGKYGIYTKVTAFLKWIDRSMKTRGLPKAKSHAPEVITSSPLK
T1 sequence (P00742 41-179 partner limits assumed): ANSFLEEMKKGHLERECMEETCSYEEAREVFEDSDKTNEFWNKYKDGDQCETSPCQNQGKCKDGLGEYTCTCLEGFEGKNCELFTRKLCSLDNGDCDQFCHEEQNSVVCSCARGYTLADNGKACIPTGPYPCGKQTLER

Molecule | Ki [1] [nM] | IC50 [2] [nM] | Ki [3] [nM] | Ki [4] [nM] | IC50 Thrombin time [2] | Ki [5] [nM] | Ki [6] [nM]
CC1(C)C2CC3OB(C(CCCCN)NC(=O)CN(C(=O)CCc4ccccc4)C4CC4)OC3(C)C1C2 (stereo not drawn) [Example 54.4.2, Hydrocinnamoyl-[N-(Cyclopropyl)-Gly]-boroLys-C10H16 HCl] | < 50000 | < 500 | < 500 | < 500 |  |  | 
2-Benzyl-(N-Benzyl)-Sar-boroLys--C10 H16 HCl [Example 64.1.1] | < 50000 |  | < 50000 | < 500 | Inactive |  | 
N=C(N)NCCC[C@@H](C=O)NC(=O)[C@@H]1CCCN1C(=O)[C@H](N)Cc1ccccc1 [D-phenylalanyl-prolyl-arginal] |  |  |  |  |  | 75 | 
CC1(C)C2CC3OB(C(CCCCN)NC(=O)CN(C(=O)CCc4ccccc4)C4CCCCC4)OC3(C)C1C2 (stereo not drawn) [Example 54.4.3, Hydrocinnamoyl-[N-(Cyclohexyl)-Gly]-boroLys-C10H16 HCl] | < 50000 | < 50000 | < 500 | < 500 |  |  | 
COC(=O)CCC(=O)N(CCc1ccccc1)CC(=O)NC(CCCCN)B(O)O (stereo not drawn) [Example 68.3.3, Methyl Succinyl-[N-(Phenethyl)-Gly]-boroLys--OH HCl] | < 50000 | < 50000 | < 50000 | < 500 |  |  | 
CC1(C)C2CC3OB(C(CCCCN)NC(=O)CN(CCc4ccccc4C4CC4)C(=O)CCc4ccccc4)OC3(C)C1C2 (stereo not drawn) [Example 54.1.2, Hydrocinnamoyl-[N-(2-(Cyclopropyl)-Phenethyl)-Gly]-boroLys-C10H16 HCl] | < 50000 | < 500 | < 500 | < 500 |  |  | 
2-Thiophenyl-Benzoyl-Sar-boroLys(CH=NH)-C10H16 [Example 63.4.2] | < 500 | < 50000 | < 50000 | < 500 |  |  | 
N#CC(CCCNC(=N)N)NC(=O)[C@@H]1CCCN1C(=O)[C@H](N)Cc1ccccc1 (stereo partly drawn) [D-phenylalanyl-prolyl-NHCH((CH2)3 NHC(=NH)NH2)--CN] |  |  |  |  |  |  | 700
CC1(C)C2CC3OB(C(CCCCN)NC(=O)CN(CCc4ccccc4)C(=O)CNS(C)(=O)=O)OC3(C)C1C2 (stereo not drawn) [Example 69.3.2, Methanesulfonyl-Gly-[N-(Phenethyl)-Gly]-boroLys-C10H16 HCl] | < 500 | < 500 | < 500 | < 500 |  |  | 
CN(CC(=O)NC(CCCCN)B1OC2CC3CC(C3(C)C)C2(C)O1)C(=O)c1ccccc1Sc1ccccc1C#N (stereo not drawn) [Example 62.4.3, (2-(2-Cyano)-Thiophenyl)-Benzoyl-Sar-boroLys-C10H16 HCl] | < 500 | < 50000 | < 50000 | < 500 |  |  | 

More lines, main results first:

Ki [1] [nM] | IC50 [2] [nM] | Ki [3] [nM] | Ki [4] [nM] | IC50 Thrombin time [2] | Molecule | Ki [5] [nM] | Ki [6] [nM]
< 500 | < 500 | < 500 | < 500 |  | Methanesulfonyl-Gly-[N-(N-(Methyl)-Benzyl)-Gly]-boroLys--OH HCl [Example 66.3.2] |  | 
< 500 | < 500 | < 500 | < 500 |  | NCCCCC(NC(=O)CN(CCc1ccccc1C1CC1)C(=O)CCc1ccccc1)B(O)O (stereo not drawn) [Example 53.1.2, Hydrocinnamoyl-[N-(2-(Cyclopropyl)-Phenethyl)-Gly]-boroLys--OH HCl] |  | 
< 500 | < 50000 | < 50000 | < 500 |  | COC(=O)CCCC(=O)N(CCc1ccccc1)CC(=O)NC(CCCCN)B(O)O (stereo not drawn) [Example 68.4.1, Methyl Glutaryl-[N-(Phenethyl)-Gly]-boroLys--OH HCl] |  | 
< 500 | < 50000 | < 50000 | < 500 |  | CC1(C)C2CC3OB(C(CCCCN)NC(=O)CN(CCc4ccccc4)C(=O)CCCC(=O)O)OC3(C)C1C2 (stereo not drawn) [Example 69.1.1, Glutaryl-[N-(Phenethyl)-Gly]-boroLys-C10H16] |  | 
< 500 | < 500 | < 50000 | < 500 |  | Cc1cccc(CCN(CC(=O)NC(CCCCN)B(O)O)C(=O)CCc2ccccc2)c1 (stereo not drawn) [Example 52.1.2, Hydrocinnamoyl-[N-(3-methylphenethyl)-Gly]-boroLys--OH hydrochloride salt] |  | 
